In ChEMBL document CHEMBL3885881, “DrugMatrix”:

Organism: Rattus norvegicus
Assay: DrugMatrix - Regimen: Daily Repeat
Type: toxicity, organism-based, Sprague-Dawley
Design: regimen Daily Repeat, gender Male, age 6-8 weeks
Details: in vivo, po, route oral GAVAGE, vehicle .5 % CMC; for ABSOLUTE BASOPHIL / ABSOLUTE EOSINOPHIL / ABSOLUTE LYMPHOCYTE / ABSOLUTE MONOCYTE / ABSOLUTE SEGMENTED NEUTROPHIL / BASOPHIL / EOSINOPHIL / ERYTHROCYTE COUNT / HEMATOCRIT / HEMOGLOBIN / LEUKOCYTE COUNT / LYMPHOCYTE / MEAN CORPUSCULAR HEMOGLOBIN / MEAN CORPUSCULAR HEMOGLOBIN CONCENTRATION / MEAN CORPUSCULAR VOLUME / MONOCYTE / NEUTROPHIL / NUCLEATED RED BLOOD CELLS / PLATELET COUNT: tissue Blood; for ALANINE AMINOTRANSFERASE / ALBUMIN / ALKALINE PHOSPHATASE / ASPARTATE AMINOTRANSFERASE / BLOOD UREA NITROGEN / CARBON DIOXIDE / CHLORIDE / CHOLESTEROL / CREATINE PHOSPHOKINASE / CREATININE / GLUCOSE / LACTATE DEHYDROGENASE / LIPASE / PHOSPHORUS / SODIUM / TOTAL BILIRUBIN / TOTAL PROTEIN / URIC ACID: tissue Plasma
[1] = 54 mg/kg, 72 h, dose level Low, time 3 day
[2] = 54 mg/kg, 120 h, dose level Low, time 5 day
[3] = 1200 mg/kg, 72 h, dose level High, time 3 day
[4] = 1200 mg/kg, 120 h, dose level High, time 5 day

## NC(N)=Nc1nc(CSCCC(N)=NS(N)(=O)=O)cs1 [FAMOTIDINE]
[1]
  ABSOLUTE BASOPHIL: 0 CELLS/uL
  ABSOLUTE EOSINOPHIL: 169.67 CELLS/uL
  ABSOLUTE LYMPHOCYTE: 13320 CELLS/uL
  ABSOLUTE MONOCYTE: 113.67 CELLS/uL
  ABSOLUTE SEGMENTED NEUTROPHIL: 2530 CELLS/uL
  BASOPHIL: 0%
  EOSINOPHIL: 1%
  ERYTHROCYTE COUNT: 5.11 x10E6/uL
  HEMATOCRIT: 32.47%
  HEMOGLOBIN: 12.1 G/DL
  LEUKOCYTE COUNT: 16.13 x10E3/uL
  LYMPHOCYTE: 81.67%
  MEAN CORPUSCULAR HEMOGLOBIN: 23.73 pg
  MEAN CORPUSCULAR HEMOGLOBIN CONCENTRATION: 37.27 G/DL
  MEAN CORPUSCULAR VOLUME: 63.57 fL
  MONOCYTE: 0.67%
  NEUTROPHIL: 16.67%
  NUCLEATED RED BLOOD CELLS: 0 /100WBC
  PLATELET COUNT: 1110 x10E3/uL
  ALANINE AMINOTRANSFERASE: 57 u/L
  ALBUMIN: 4.17 G/DL
  ALKALINE PHOSPHATASE: 343.67 u/L
  ASPARTATE AMINOTRANSFERASE: 85 u/L
  BLOOD UREA NITROGEN: 17 mg/dL
  CARBON DIOXIDE: 27.33 mmol/L
  CHLORIDE: 106.67 MEQ/L
  CHOLESTEROL: 74.67 mg/dL
  CREATINE PHOSPHOKINASE: 218 u/L
  CREATININE: 0.19 mg/dL
  GLUCOSE: 162 mg/dL
  LACTATE DEHYDROGENASE: 62.33 u/L
  LIPASE: 9 u/L
  PHOSPHORUS: 14.6 mg/dL
  SODIUM: 148.03 MEQ/L
  TOTAL BILIRUBIN: 0.2 mg/dL
  TOTAL PROTEIN: 5.87 G/DL
  URIC ACID: 1.13 mg/dL
[2]
  ABSOLUTE BASOPHIL: 0 CELLS/uL
  ABSOLUTE EOSINOPHIL: 121 CELLS/uL
  ABSOLUTE LYMPHOCYTE: 12766.33 CELLS/uL
  ABSOLUTE MONOCYTE: 233 CELLS/uL
  ABSOLUTE SEGMENTED NEUTROPHIL: 713 CELLS/uL
  BASOPHIL: 0%
  EOSINOPHIL: 1%
  ERYTHROCYTE COUNT: 5.42 x10E6/uL
  HEMATOCRIT: 34.9%
  HEMOGLOBIN: 13.43 G/DL
  LEUKOCYTE COUNT: 13.83 x10E3/uL
  LYMPHOCYTE: 92%
  MEAN CORPUSCULAR HEMOGLOBIN: 24.87 pg
  MEAN CORPUSCULAR HEMOGLOBIN CONCENTRATION: 38.5 G/DL
  MEAN CORPUSCULAR VOLUME: 64.63 fL
  MONOCYTE: 1.67%
  NEUTROPHIL: 5.33%
  NUCLEATED RED BLOOD CELLS: 0 /100WBC
  PLATELET COUNT: 1325.67 x10E3/uL
  ALANINE AMINOTRANSFERASE: 55.33 u/L
  ALBUMIN: 4.33 G/DL
  ALKALINE PHOSPHATASE: 326.67 u/L
  ASPARTATE AMINOTRANSFERASE: 90.67 u/L
  BLOOD UREA NITROGEN: 18 mg/dL
  CARBON DIOXIDE: 24.33 mmol/L
  CHLORIDE: 106.33 MEQ/L
  CHOLESTEROL: 62.67 mg/dL
  CREATINE PHOSPHOKINASE: 662.67 u/L
  CREATININE: 0.19 mg/dL
  GLUCOSE: 182.67 mg/dL
  LACTATE DEHYDROGENASE: 190.67 u/L
  LIPASE: 8 u/L
  PHOSPHORUS: 14.57 mg/dL
  SODIUM: 146.63 MEQ/L
  TOTAL BILIRUBIN: 0.2 mg/dL
  TOTAL PROTEIN: 6.07 G/DL
  URIC ACID: 1.6 mg/dL
[3]
  ABSOLUTE BASOPHIL: 0 CELLS/uL
  ABSOLUTE EOSINOPHIL: 179 CELLS/uL
  ABSOLUTE LYMPHOCYTE: 9906 CELLS/uL
  ABSOLUTE MONOCYTE: 48.67 CELLS/uL
  ABSOLUTE SEGMENTED NEUTROPHIL: 1366.33 CELLS/uL
  BASOPHIL: 0%
  EOSINOPHIL: 1.67%
  ERYTHROCYTE COUNT: 5.88 x10E6/uL
  HEMATOCRIT: 36.73%
  HEMOGLOBIN: 13.97 G/DL
  LEUKOCYTE COUNT: 11.5 x10E3/uL
  LYMPHOCYTE: 85.33%
  MEAN CORPUSCULAR HEMOGLOBIN: 23.73 pg
  MEAN CORPUSCULAR HEMOGLOBIN CONCENTRATION: 38.03 G/DL
  MEAN CORPUSCULAR VOLUME: 62.5 fL
  MONOCYTE: 0.67%
  NEUTROPHIL: 12.33%
  NUCLEATED RED BLOOD CELLS: 0 /100WBC
  PLATELET COUNT: 1159.67 x10E3/uL
  ALANINE AMINOTRANSFERASE: 56 u/L
  ALBUMIN: 4.43 G/DL
  ALKALINE PHOSPHATASE: 396.33 u/L
  ASPARTATE AMINOTRANSFERASE: 89 u/L
  BLOOD UREA NITROGEN: 16.33 mg/dL
  CARBON DIOXIDE: 26.33 mmol/L
  CHLORIDE: 106.33 MEQ/L
  CHOLESTEROL: 85.33 mg/dL
  CREATINE PHOSPHOKINASE: 213.67 u/L
  CREATININE: 0.2 mg/dL
  GLUCOSE: 152.33 mg/dL
  LACTATE DEHYDROGENASE: 137.33 u/L
  LIPASE: 8.67 u/L
  PHOSPHORUS: 13.77 mg/dL
  SODIUM: 148.03 MEQ/L
  TOTAL BILIRUBIN: 0.27 mg/dL
  TOTAL PROTEIN: 6.4 G/DL
  URIC ACID: 2.37 mg/dL
[4]
  ABSOLUTE BASOPHIL: 0 CELLS/uL
  ABSOLUTE EOSINOPHIL: 254 CELLS/uL
  ABSOLUTE LYMPHOCYTE: 15699.67 CELLS/uL
  ABSOLUTE MONOCYTE: 74 CELLS/uL
  ABSOLUTE SEGMENTED NEUTROPHIL: 1405.67 CELLS/uL
  BASOPHIL: 0%
  EOSINOPHIL: 1.33%
  ERYTHROCYTE COUNT: 5.4 x10E6/uL
  HEMATOCRIT: 34.6%
  HEMOGLOBIN: 13.17 G/DL
  LEUKOCYTE COUNT: 17.43 x10E3/uL
  LYMPHOCYTE: 90%
  MEAN CORPUSCULAR HEMOGLOBIN: 24.43 pg
  MEAN CORPUSCULAR HEMOGLOBIN CONCENTRATION: 38.03 G/DL
  MEAN CORPUSCULAR VOLUME: 64.2 fL
  MONOCYTE: 0.33%
  NEUTROPHIL: 8.33%
  NUCLEATED RED BLOOD CELLS: 0 /100WBC
  PLATELET COUNT: 1387 x10E3/uL
  ALANINE AMINOTRANSFERASE: 59 u/L
  ALBUMIN: 4.4 G/DL
  ALKALINE PHOSPHATASE: 383.67 u/L
  ASPARTATE AMINOTRANSFERASE: 87.67 u/L
  BLOOD UREA NITROGEN: 18 mg/dL
  CARBON DIOXIDE: 25.67 mmol/L
  CHLORIDE: 103.67 MEQ/L
  CHOLESTEROL: 59.33 mg/dL
  CREATINE PHOSPHOKINASE: 259.33 u/L
  CREATININE: 0.27 mg/dL
  GLUCOSE: 182 mg/dL
  LACTATE DEHYDROGENASE: 250.33 u/L
  LIPASE: 8.67 u/L
  PHOSPHORUS: 14.07 mg/dL
  SODIUM: 145.8 MEQ/L
  TOTAL BILIRUBIN: 0.17 mg/dL
  TOTAL PROTEIN: 6.3 G/DL
  URIC ACID: 2.17 mg/dL
